According to PMC11678531, “C118P Suppresses Gastric Cancer Growth via Promoting Autophagy–Lysosomal Degradation of RAB1A” (Pharmaceutics, 2024):

Target: T1, RAB1A (Human Rab1a Recombinant protein) (Homo sapiens, UniProt P62820)
T1 construct: commercial recombinant protein (Shanghai Chunmai Biotechnology); RED-NHS labelled
Assay: microscale thermophoresis
Type: binding
Details: RED-NHS labelled protein; room temperature; C118P 0.61 pM to 20 µM

T1 sequence (P62820 2-205): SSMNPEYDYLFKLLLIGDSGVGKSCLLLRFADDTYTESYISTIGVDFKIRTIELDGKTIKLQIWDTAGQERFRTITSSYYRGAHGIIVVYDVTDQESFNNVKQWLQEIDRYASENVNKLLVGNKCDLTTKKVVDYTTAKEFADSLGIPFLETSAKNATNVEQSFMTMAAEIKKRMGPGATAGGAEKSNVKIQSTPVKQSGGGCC

Structure (SMILES): COc1cc(OC)cc(-c2nc[nH]c2-c2ccc(OC)c(OP(=O)(O)O)c2)c1 [C118P]
- Kd: 3.13 nM
